Series [1] relates to HT-29 human colon carcinoma cells. The series can be described thus: Cell proliferation (colony formation) assay, HT-29. The class given is cell-based. As to conditions: cancer cell line HT-29, 4 h exposure, colonies scored after 10-15 days, compounds added in micromolar concentrations. How it is done: (§1) Cell proliferation assays were performed as described previously (Müller et al., (1996) J. Med. Chem. 39: 3132-3138; Müller et al., (1994) J. Med. Chem. 37: 1660-1669). More specifically, exponentially growing cells were seeded at 1,000 cells per well in six-well plates and allowed to attach for 24 h. […] Control wells were treated with equivalent volumes of DMSO. After 4 h, the supernatant was removed and fresh medium was added. Cultures were observed daily for 10-15 days and then were fixed and stained. Colonies of greater than 30 cells were scored as survivors. The assays of the present invention as shown in Table 2 and methods of measuring induction of E2F activity and elevation of E2F levels can be carried out following the descriptions found in Li et al., (2003) Proc Natl Acad Sci USA. 100(5): 2674-8 and U.S. Patent Application Publication No.2002/0169135, both incorporated herein by reference in their entireties.

The subject of series [2] is MIA PACA-2 human pancreatic carcinoma cells. The series can be described thus: Cell proliferation (colony formation) assay, PaCa-2. Type of series: cell-based. As to conditions: cancer cell line PaCa-2, 4 h exposure, colonies scored after 10-15 days, compounds added in micromolar concentrations, read-out: Average IC50 Pancr. PaCa-2. The protocol:
as §1

Series [3] has as its system NCM 460 normal colonic epithelial cells. The series can be described thus: Cell proliferation (colony formation) assay, NCM460 normal cells. Conditions: Homo sapiens; normal cell line NCM460; 4 h exposure, colonies scored after 10-15 days; compounds added in micromolar concentrations; read-out: Average IC50 Normal Cell Lines Colon NCM460. The class given is cell-based. The protocol: as §1

Series [4] relates to MCF 10A normal breast epithelial cells. The series can be described thus: Cell proliferation (colony formation) assay, MCF10A normal cells. Type of series: cell-based. Conditions: Homo sapiens, normal cell line MCF10A, 4 h exposure, colonies scored after 10-15 days, compounds added in micromolar concentrations, read-out: Average IC50 Normal Cell Lines Breast MCF10A. How it is done:
as §1

Series [5] relates to A549 human lung carcinoma cells. The series can be described thus: Cell proliferation (colony formation) assay, A549. As to conditions: cancer cell line A549, 4 h exposure, colonies scored after 10-15 days, compounds added in micromolar concentrations. The class given is cell-based. How it is done: as §1, with “The assays of the present invention as shown in Table 2 and methods of measuring induction of E2F activity and elevation of E2F levels can be carried out following the descriptions found in Li et al., (2003) Proc Natl Acad Sci USA.” left out

The subject of series [6] is MCF-7 human breast carcinoma cells. The series can be described thus: Cell proliferation (colony formation) assay, MCF7. Type of series: cell-based. Conditions: cancer cell line MCF7, 4 h exposure, colonies scored after 10-15 days, compounds added in micromolar concentrations. How it is done: as §1
Series [7] has as its system SW-480 human colon carcinoma cells. The series can be described thus: Cell proliferation (colony formation) assay, SW480. Type of series: cell-based. As to conditions: cancer cell line SW480, 4 h exposure, colonies scored after 10-15 days, compounds added in micromolar concentrations. The protocol:
as §1

For series [8], the system named is DLD1 human colon carcinoma cells. The series can be described thus: Cell proliferation (colony formation) assay, DLD1. The class given is cell-based. As to conditions: DLD-1, cancer cell line DLD1, 4 h exposure, colonies scored after 10-15 days, compounds added in micromolar concentrations. The protocol: as §1
For series [9], the system named is cancer cell lines and normal cells. As to conditions: Li et al. 2003; cited from earlier work.
A further series concerns human cancer cell lines. As to conditions: single agent; typical range; read-out: antineoplastic activity against human cancer cell lines (IC50); cited from earlier work.
The test system of series [10] is normal fresh or proliferating human PBMC. As to conditions: cited from earlier work.
Series [11] relates to E2F family of transcription factors. As to conditions: cancer cells versus normal cells; cited from earlier work.

As usually defined, the IC50 is the concentration needed to halve the response being measured.

Regarding `O=C1C(=O)c2ccccc2C2=C1C(c1ccccc1)CCS2` (stereo not drawn) [Compound 7, 3,4-dihydro-4-phenyl-2H-naphtho[1,2-b]thiopyran-5,6-dione], the IC50 in [1] was 2200 nM; in series [2] it was 2300 nM; in series [3], 8800 nM; in series [4], 7000 nM; in series [5], 2000 nM.
In the case of `CC1SC2=C(C(=O)C(=O)c3ccccc32)C1(C)C` (stereo not drawn) [Compound 3, 2,3,3-trimethyl-2H-3H-naphtho[1,2-b]thiophene-4,5-dione], the half-inhibitory concentration (IC50) in series [6] came to 1000 nM; in series [1] it was 1500 nM; in series [3], 2000 nM; in series [7], 900 nM; in [8] it was 900 nM.
On to `CC1(C)CCSC2=C1C(=O)C(=O)c1ccccc12` [Compound 6, 3,4-dihydro4,4-dimethyl-2H-naphtho[1,2-b]thiopyran-5,6-dione], for which the IC50 in [1] was found to be 1600 nM; in [2], 1200 nM; in series [3], 6000 nM; in [4], 6300 nM; in [5] it was 1600 nM.
For `CC1SC2=C(OC1(C)C)C(=O)C(=O)c1ccccc12` (stereo not drawn) [Compound 12, 2,2,3-trimethyl-11,12-dehydro-naphtho[1,2-b]thioxane-9,10-dione], the IC50 in series [1] stood at 4000 nM; in series [2], 2200 nM; in series [3], 13100 nM; in series [4] it was 14100 nM; in series [5] it was 3100 nM.
With `CC1(C)CCC2=C(O1)c1ccccc1C(=O)C2=O` [β-Lapachone, 3,4-dihydro-2,2-dimethyl-2H-naphtho[1,2-b]pyran-5,6-dione, reference compound], the IC50 in [6] turned out to be 1000 nM; in series [1] it was 2100 nM; in [2] it was 1600 nM; in series [3], 8100 nM; in series [4], 5800 nM; in series [7], 3300 nM. For the same molecule, the figures for the IC50 (in the series on human cancer cell lines; in [8]) were 1000 to 10000 nM and 3600 nM, respectively. For the same molecule, in [9], the “induction of apoptosis in cancer cell lines versus normal cells” value is “induces apoptosis only in cancer cell lines and not in normal cells”. In series [10], the “cytotoxic effects on normal human PBMC” value was “No cytotoxic effects”. Moreover, the “induction of sustained E2F activity in nuclei of cancer cells but not in normal cells” value in series [11] is on record as “induces sustained E2F activity”.
As to `CC1CSC2=C(O1)C(=O)C(=O)c1ccccc12` (stereo not drawn) [Compound 9, 2-methyl-11,12-dehydro-naphtho[1,2-b]thioxane-9,10-dione], the IC50 in [1] was found to be 1500 nM; in [2], 1400 nM; in series [3] it was 4900 nM; in series [4], 6400 nM; in series [7], 1500 nM; in series [5], 2000 nM.
For the molecule `CC1(C)CCC2=C(S1)c1ccccc1C(=O)C2=O` [Compound 1, 3,4-dihydro-2,2-dimethyl-2H-naphtho[1,2-b]thiopyran-5,6-dione], the IC50 is 1000 nM in series [6]; 1800 nM in series [1]; 1500 nM in [2]; 7500 nM in series [3]; 6700 nM in series [4]; 1500 nM in series [7]. Besides, the values for the IC50 in series [5] and in series [8] were 1700 nM and 2000 nM, respectively.
On to `CC1(C)CCC2=C(S1)C(=O)c1ccccc1C2=O` [Compound 2, 3,4-dihydro-2,2-dimethyl-2H-naphtho[2,3-b]thiopyran-5,10-dione], for which the concentration for half-maximal inhibition (IC50) in [6] turned out to be 16000 nM; in series [7], 32000 nM; in [8] it was 32000 nM.
As for `CC1SC2=C(C(=O)C(=O)c3ccccc32)C1(c1ccccc1)c1ccccc1` (stereo not drawn) [Compound 5, 2-methyl-3,3-diphenyl-2H-3H-naphtho[1,2-b]thiophene4,5-dione], the IC50 in series [1] stood at 1700 nM; in series [2], 1300 nM; in [3], 7800 nM; in series [4] it was 5900 nM; in series [5] it was 2300 nM.
Regarding `CC1OC2=C(C(=O)C(=O)c3ccccc32)C1(C)C` (stereo not drawn) [Dunnione, 2,3,3-trimethyl-2,3,4,5-tetrahydro-naphtho(2,3-b)dihydrofuran-6,7-dione, reference compound], the IC50 is 1000 nM in series [6], 4000 nM in series [3], 2800 nM in [7] and 2800 nM in [8].
Regarding `CC1OC2=C(SC1C)c1ccccc1C(=O)C2=O` (stereo not drawn) [Compound 10, 2,3-dimethyl-11,12-dehydro-naphtho[1,2-b]thioxane-9,10-dione], the IC50 in series [1] is 2000 nM; in series [2] it was 2000 nM; in series [3], 6100 nM; in [4] it was 8000 nM; in [7] it was 1000 nM; in series [5], 1800 nM.

(Values after patent US20040266857A1, “Novel lapachone compounds and methods of use thereof” (priority 2002, published 2004).)
